The target in data set [1] is T1, Organic anion transporter 3 (OAT3) (Rattus norvegicus, UniProt Q9R1U7).
T1 sequence (Q9R1U7 whole entry): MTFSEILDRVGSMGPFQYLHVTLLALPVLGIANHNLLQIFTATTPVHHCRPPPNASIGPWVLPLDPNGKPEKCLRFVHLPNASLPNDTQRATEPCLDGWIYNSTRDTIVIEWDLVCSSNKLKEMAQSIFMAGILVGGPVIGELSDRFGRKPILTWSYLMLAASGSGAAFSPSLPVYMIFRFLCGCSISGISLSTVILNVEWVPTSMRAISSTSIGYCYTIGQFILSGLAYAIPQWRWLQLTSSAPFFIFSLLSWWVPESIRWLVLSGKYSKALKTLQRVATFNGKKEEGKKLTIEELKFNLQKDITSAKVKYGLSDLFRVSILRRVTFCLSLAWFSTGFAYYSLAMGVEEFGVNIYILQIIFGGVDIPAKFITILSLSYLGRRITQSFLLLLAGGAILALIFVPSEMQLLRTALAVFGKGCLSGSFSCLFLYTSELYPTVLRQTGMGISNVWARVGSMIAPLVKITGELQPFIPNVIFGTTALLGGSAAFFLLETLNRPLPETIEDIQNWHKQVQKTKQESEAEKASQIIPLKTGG
The experiment in a line: TP_TRANSPORTER: inhibition of Indoxyl sulfate uptake (indoxyl sulfate: 2 uM, CMPF: 1000 uM) in Xenopus laevis oocytes. Format: functional, cell-based, Oocyte. Further details: scale not given: the % may be the effect or the level left. The settings on record: probe indoxyl sulfate (2 uM), read-out: Activity.

Data set [2] addresses T1, Organic anion transporter 3 (OAT3). The experiment in a line: TP_TRANSPORTER: inhibition of Indoxyl sulfate uptake (indoxyl sulfate: 2 uM, Indoleacetic acid: 1000 uM) in Xenopus laevis oocytes. Format: functional, cell-based, Oocyte. On the set-up: scale not given: the % may be the effect or the level left. The settings on record: probe indoxyl sulfate (2 uM), read-out: Activity.

Data set [3] shares this target. The experiment in a line: TP_TRANSPORTER: inhibition of Indoxyl sulfate uptake (indoxyl sulfate: 2 uM, 4-Hydroxybenzoic acid: 1000 uM) in Xenopus laevis oocytes. It counts as functional, cell-based, Oocyte. On the set-up: scale not given: the % may be the effect or the level left. Conditions: probe indoxyl sulfate (2 uM), read-out: Activity.
For data set [4], the target named is T2, Organic anion transporter 3 (Rattus norvegicus, UniProt Q9R1U7).
T2 sequence (Q9R1U7 whole entry): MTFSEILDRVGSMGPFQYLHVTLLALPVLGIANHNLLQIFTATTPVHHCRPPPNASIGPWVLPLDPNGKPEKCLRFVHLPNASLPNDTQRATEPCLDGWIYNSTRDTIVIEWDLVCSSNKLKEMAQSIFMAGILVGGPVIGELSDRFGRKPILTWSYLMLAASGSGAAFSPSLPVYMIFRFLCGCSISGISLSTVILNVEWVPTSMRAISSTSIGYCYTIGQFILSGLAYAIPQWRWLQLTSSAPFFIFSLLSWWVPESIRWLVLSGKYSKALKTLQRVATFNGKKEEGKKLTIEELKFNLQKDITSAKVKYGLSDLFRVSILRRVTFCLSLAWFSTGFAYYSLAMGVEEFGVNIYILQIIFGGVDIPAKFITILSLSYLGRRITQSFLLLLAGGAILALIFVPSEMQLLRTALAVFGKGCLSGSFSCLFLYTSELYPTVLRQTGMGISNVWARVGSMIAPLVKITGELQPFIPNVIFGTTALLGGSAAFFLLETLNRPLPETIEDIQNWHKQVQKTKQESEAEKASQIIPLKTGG
The experiment in a line: TP_TRANSPORTER: inhibition of Indoxyl sulfate uptake (indoxyl sulfate: 2 uM, Hippurate: 1000 uM) in Xenopus laevis oocytes. It counts as functional, cell-based. The settings on record: oocyte. Further details: scale not given: the % may be the effect or the level left.

In data set [5] the target is T1, Organic anion transporter 3 (OAT3). The experiment in a line: TP_TRANSPORTER: inhibition of Indoxyl sulfate uptake (indoxyl sulfate: 2 uM, 4-Hydroxyphenylacetic acid: 1000 uM) in Xenopus laevis oocytes. It counts as functional, cell-based, Oocyte. On the set-up: scale not given: the % may be the effect or the level left. Conditions: probe indoxyl sulfate (2 uM), read-out: Activity.

Data set [6] shares this target. The experiment in a line: TP_TRANSPORTER: inhibition of Indoxyl sulfate uptake (indoxyl sulfate: 2 uM, 2-Hydroxycinnamic acid: 1000 uM) in Xenopus laevis oocytes. It counts as functional, cell-based, Oocyte. On the set-up: scale not given: the % may be the effect or the level left. The settings on record: probe indoxyl sulfate (2 uM), read-out: Activity.
Substrate in data set [7]: O=S(=O)(O)Oc1c[nH]c2ccccc12
The experiment in a line: TP_TRANSPORTER: uptake in Xenopus laevis oocytes. It counts as functional, cell-based, Oocyte.

Consider `CCCc1oc(CCC(=O)O)c(C(=O)O)c1C`, for which, in data set [1], the activity at 1000 µM came out at 8.38%.

Regarding `CC(=O)Oc1c[nH]c2ccccc12` [INDOLE ACETATE], the activity at 1000 µM in data set [2] is 51.2%.

For `O=C(O)c1ccc(O)cc1` [PARABEN], the activity at 1000 µM in data set [3] was 22.1%.

Regarding `O=C(O)CNC(=O)c1ccccc1` [HIPPURIC ACID], the Activity in data set [4] was 24.6%.

With `O=C(O)Cc1ccc(O)cc1`, the activity at 1000 µM in data set [5] was 29.7%.

With `O=C(O)/C=C/c1ccccc1O` [O-COUMARIC ACID], the activity at 1000 µM in data set [6] is 39.5%.

B1: Organic anion transporter 3 (Rattus norvegicus) (protein)
chain: MTFSEILDRVGSMGPFQYLHVTLLALPVLGIANHNLLQIFTATTPVHHCRPPPNASIGPWVLPLDPNGKPEKCLRFVHLPNASLPNDTQRATEPCLDGWIYNSTRDTIVIEWDLVCSSNKLKEMAQSIFMAGILVGGPVIGELSDRFGRKPILTWSYLMLAASGSGAAFSPSLPVYMIFRFLCGCSISGISLSTVILNVEWVPTSMRAISSTSIGYCYTIGQFILSGLAYAIPQWRWLQLTSSAPFFIFSLLSWWVPESIRWLVLSGKYSKALKTLQRVATFNGKKEEGKKLTIEELKFNLQKDITSAKVKYGLSDLFRVSILRRVTFCLSLAWFSTGFAYYSLAMGVEEFGVNIYILQIIFGGVDIPAKFITILSLSYLGRRITQSFLLLLAGGAILALIFVPSEMQLLRTALAVFGKGCLSGSFSCLFLYTSELYPTVLRQTGMGISNVWARVGSMIAPLVKITGELQPFIPNVIFGTTALLGGSAAFFLLETLNRPLPETIEDIQNWHKQVQKTKQESEAEKASQIIPLKTGG
For orientation: Km means the concentration of substrate that gives half-maximal velocity. As to B1, the Michaelis-Menten constant (Km) in data set [7] is 158 µM.

The values are drawn from ChEMBL document CHEMBL2073897, “Major role of organic anion transporter 3 in the transport of indoxyl sulfate in the kidney” (Kidney Int, 2002).
